From patent US20020052296A1, “Herbicidal synergistic combination of a dihydrobenzothiophene compound and a photosystem II inhibitor” (Intellectual Property Department, BASF Aktiengesellschaft, priority 2000, published 2002)

Legend:
Settings in all cases: 18 days after treatment
SETVI (Foxtail, green) = assay: Greenhouse postemergence herbicidal evaluation, % weed control; assay type: in vivo, Setaria viridis
Method: (§1) In the following examples, synergism for two-way combinations is determined by the Colby1 method, i.e. the expected (or predicted) response of the combination is calculated by taking the product of the observed response for each individual component of the combination when applied alone divided by 100 and subtracting this value from the sum of the observed response for each component when applied alone. Synergism of the combination is then determined by comparing the observed response of the combination to the expected (or predicted) response as calculated from the observed responses of each individual component alone. If the observed response of the combination is greater than the expected (or predicted) response then the combination is said to be synergistic and falls within the definition of synergistic effect as previously defined.
(§2) In this evaluation, seedlings of the plant species listed below are grown in Metromix® soil in jiffy flats for about two weeks, to the 2-3 leaf growth stage. The test compounds are dispersed in water containing 1.0% Sunit II, a methylated seed oil of Agsco, Inc., and applied to the plants through a spray nozzle operating at 40 psi for a predetermined time so as to obtain a range of application rates of about 3.0 g/ha to 250 g/ha. Each treatment is replicated 3 times. After spraying, the plants are placed on greenhouse benches and are cared for in accordance with conventional greenhouse procedures. Eighteen days after treatment, the seedling plants are examined and the % weed control as compared to the untreated check is recorded.
(§3) For replicated treatments, the data are averaged. The Colby method of analysis is used to determine the resultant biological effect of the combination treatment as compared to the biological effect of each component when applied alone. In Tables I and II, obs designates observed and exp designates expected.

SORBI (Shattercane) = assay: as above; assay type: in vivo, Sorghum bicolor
Method: as §1, §2, §3

AGRRE (Quackgrass) = assay: as above; assay type: in vivo, Elytrigia repens
Method: as §1, §2, §3

SORHA (Johnsongrass) = assay: as above; assay type: in vivo, Sorghum halepense
Method: as §1, §2, §3

PANDI (Fall panicum) = assay: as above; assay type: in vivo, Panicum dichotomiflorum
Method: as §1, §2, §3

ERBVI (Cupgrass, woolly) = assay: as above; assay type: in vivo, Eriochloa villosa
Method: as §1, §2, §3

[1] = test system: PANMI (Millet, wild proso); assay: as above; assay type: in vivo, Panicum miliaceum
Method: as §1, §2, §3

CASOB (Sicklepod) = assay: as above; assay type: in vivo, Senna obtusifolia
Method: as §1, §2, §3

ECHCG (Barnyardgrass) = assay: as above; assay type: in vivo, Echinochloa crus-galli
Method: as §1, §2, §3

[2] = test system: BRAPP (Signalgrass, broadleaf); assay: as above; assay type: in vivo, Brachiaria platyphylla
Method: as §1, §2, §3

SETFA (Foxtail, giant) = assay: as above; assay type: in vivo, Setaria faberi
Method: as §1, §2, §3

DIGSA (Crabgrass, large) = assay: as above; assay type: in vivo, Digitaria sanguinalis
Method: as §1, §2, §3

ZEAMX (Corn) = assay: Greenhouse postemergence herbicidal evaluation, crop response; assay type: in vivo, Zea mays
Method: as §1, §2, §3

## CCCS(=O)(=O)Oc1c(C(=O)c2ccc3c(c2C)C(C)(C)CS3(=O)=O)cnn1C [DHBT IA, 1-propanesulfonic acid ester of 2,3-dihydro-3,3,4-trimethylbenzo [b]thien-5-yl 5-hydroxy-1-methylpyrazol-4-yl ketone S,S-dioxide]
SETVI (Foxtail, green); 3.00 g/ha alone
  % WEED CONTROL SETVI Obs: 35%
SETVI (Foxtail, green); 6.00 g/ha alone
  % WEED CONTROL SETVI Obs: 100%
SETVI (Foxtail, green); 12.0 g/ha alone
  % WEED CONTROL SETVI Obs: 80%
SORBI (Shattercane); 3.00 g/ha alone
  % WEED CONTROL SORBI Obs: 30%
SORBI (Shattercane); 6.00 g/ha alone
  % WEED CONTROL SORBI Obs: 35%
SORBI (Shattercane); 12.0 g/ha alone
  % WEED CONTROL SORBI Obs: 60%
AGRRE (Quackgrass); 3.00 g/ha alone
  % WEED CONTROL AGRRE Obs: 20%
AGRRE (Quackgrass); 6.00 g/ha alone
  % WEED CONTROL AGRRE Obs: 30%
AGRRE (Quackgrass); 12.0 g/ha alone
  % WEED CONTROL AGRRE Obs: 35%
SORHA (Johnsongrass); 3.00 g/ha alone
  % WEED CONTROL SORHA Obs: 35%
SORHA (Johnsongrass); 6.00 g/ha alone
  % WEED CONTROL SORHA Obs: 40%
SORHA (Johnsongrass); 12.0 g/ha alone
  % WEED CONTROL SORHA Obs: 65%
PANDI (Fall panicum); 3.00 g/ha alone
  % WEED CONTROL PANDI Obs: 40%
PANDI (Fall panicum); 6.00 g/ha alone
  % WEED CONTROL PANDI Obs: 55%
PANDI (Fall panicum); 12.0 g/ha alone
  % WEED CONTROL PANDI Obs: 75%
ERBVI (Cupgrass, woolly); 3.00 g/ha alone
  % WEED CONTROL ERBVI Obs: 0%
ERBVI (Cupgrass, woolly); 6.00 g/ha alone
  % WEED CONTROL ERBVI Obs: 15%
ERBVI (Cupgrass, woolly); 12.0 g/ha alone
  % WEED CONTROL ERBVI Obs: 40%
[1]; 3.00 g/ha alone
  % WEED CONTROL PANMI Obs: 40%
[1]; 6.00 g/ha alone
  % WEED CONTROL PANMI Obs: 70%
[1]; 12.0 g/ha alone
  % WEED CONTROL PANMI Obs: 95%
CASOB (Sicklepod); 3.00 g/ha alone
  % WEED CONTROL CASOB Obs: 15%
CASOB (Sicklepod); 6.00 g/ha alone
  % WEED CONTROL CASOB Obs: 25%
CASOB (Sicklepod); 12.0 g/ha alone
  % WEED CONTROL CASOB Obs: 25%
ECHCG (Barnyardgrass); 3.00 g/ha alone
  % WEED CONTROL ECHCG Obs: 45%
ECHCG (Barnyardgrass); 6.00 g/ha alone
  % WEED CONTROL ECHCG Obs: 60%
ECHCG (Barnyardgrass); 12.0 g/ha alone
  % WEED CONTROL ECHCG Obs: 80%
[2]; 3.00 g/ha alone
  % WEED CONTROL BRAPP Obs: 25%
[2]; 6.00 g/ha alone
  % WEED CONTROL BRAPP Obs: 55%
[2]; 12.0 g/ha alone
  % WEED CONTROL BRAPP Obs: 100%
SETFA (Foxtail, giant); 3.00 g/ha alone
  % WEED CONTROL SETFA Obs: 35%
SETFA (Foxtail, giant); 6.00 g/ha alone
  % WEED CONTROL SETFA Obs: 55%
SETFA (Foxtail, giant); 12.0 g/ha alone
  % WEED CONTROL SETFA Obs: 90%
DIGSA (Crabgrass, large); 3.00 g/ha alone
  % WEED CONTROL DIGSA Obs: 50%
DIGSA (Crabgrass, large); 6.00 g/ha alone
  % WEED CONTROL DIGSA Obs: 70%
DIGSA (Crabgrass, large); 12.0 g/ha alone
  % WEED CONTROL DIGSA Obs: 85%
ZEAMX (Corn); 3.00 g/ha alone
  % crop injury, corn (observed): 0%
ZEAMX (Corn); 6.00 g/ha alone
  % crop injury, corn (observed): 0%
ZEAMX (Corn); 12.0 g/ha alone
  % crop injury, corn (observed): 0%

## Atrazine [reference compound]
SETVI (Foxtail, green); 250 g/ha alone
  % WEED CONTROL SETVI Obs: 90%
SORBI (Shattercane); 250 g/ha alone
  % WEED CONTROL SORBI Obs: 0%
AGRRE (Quackgrass); 250 g/ha alone
  % WEED CONTROL AGRRE Obs: 45%
SORHA (Johnsongrass); 250 g/ha alone
  % WEED CONTROL SORHA Obs: 0%
PANDI (Fall panicum); 250 g/ha alone
  % WEED CONTROL PANDI Obs: 5%
ERBVI (Cupgrass, woolly); 250 g/ha alone
  % WEED CONTROL ERBVI Obs: 10%
[1]; 250 g/ha alone
  % WEED CONTROL PANMI Obs: 60%
CASOB (Sicklepod); 250 g/ha alone
  % WEED CONTROL CASOB Obs: 40%
ECHCG (Barnyardgrass); 250 g/ha alone
  % WEED CONTROL ECHCG Obs: 85%
[2]; 250 g/ha alone
  % WEED CONTROL BRAPP Obs: 20%
SETFA (Foxtail, giant); 250 g/ha alone
  % WEED CONTROL SETFA Obs: 85%
DIGSA (Crabgrass, large); 250 g/ha alone
  % WEED CONTROL DIGSA Obs: 15%
ZEAMX (Corn); 250 g/ha alone
  % crop injury, corn (observed): 0%
